Entries after “also recorded” stand apart in the source; their conditions may differ.
System: GL261 tumor bearing mice
Assay: GL261 glioma model: tumor lysate vaccine +/- antagonist, tumor growth by imaging and survival
Type: in vivo, C57BL/6 mice
Settings: for Tumor growth: tumor lysate vaccine + antagonist vs tumor lysate alone or saline, weekly imaging; for Survival: GL261 glioma model, tumor lysate vaccine + antagonist
Method: FIGS. 4A-4C. FIG. 4A) GL261 tumor bearing mice were inoculated with 50 μg of antagonist 6059 one day prior to vaccination with tumor lysate (65 μg)+/−the antagonist 6059 (50 μg). FIG. 4B) Mice were imaged weekly for tumor growth. The following groups were studied: saline (1), tumor lysate (2), and tumor lysate+6059 (3). FIG. 4C) Percent survival post inoculation for saline (1), tumor lysate (2), and tumor lysate+6059 (3) groups.
FIGS. 5A-5B. FIG. 5A) GL261 tumor bearing mice were inoculated with 10 μg of 6059 on day 2 into the tumor site then with 50 μg of antagonist 6059 one day prior to vaccination with tumor lysate (65 μg)+the antagonist 6059 (50 μg). FIG. 5B) Mice were imaged weekly for tumor growth. The following groups were studied: saline (1), tumor lysate+6059 (2), and CNS+tumor lysate+6059 (3) groups.
Whether vaccination with CD200R antagonists could enhance the survival of tumor-bearing mice was also studied. […] GL261 tumor bearing mice were vaccinated weekly with saline, tumor lysates (TL) or tumor lysates+an antagonist (4004, 4013, 6059).
Tumor-bearing mice were inoculated in the brain with 10 μg of the inhibitor 6059 at the same coordinates at which the tumor was injected two days previously. This was followed by weekly injections of tumor lysate+inhibitor (FIGS. 5A-5B).
Tumors were implanted into female C57BL/6 mice (6-8 wk old) (Jackson Laboratory) and maintained in a pathogen-free facility according to the guidelines of the University of Minnesota Animal Care and Use Committee. The GL261 orthotopic transplant model was established in C57BL/6 (B6) mice by inoculation with 15,000 GL261-Luc^+ cells in 1 μl of saline. Tumors were implanted stereotactically into the right striatum; coordinates were 2.5 mm lateral, 0.5 mm anterior of bregma, and 3 mm deep from the cortical surface of the brain^19. Tumor burden was determined by bioluminescent imaging. Light emitted from the tumors was quantified using Living Image software (Xenogen) and expressed as photons per second per centimeter squared per steradian (p/s/cm^2/sr). GL261 cells for tumor lysate vaccines were cultured in neural stem cell media consisting of DMEM/F12 (1:1) with L-glutamine, sodium bicarbonate, penicillin/streptomycin (100 U/ml), B27 and N2 supplements (Life Technologies), and 0.1 mg/ml Normocin (Invivogen). Cultures were maintained at 5% 02 and supplemented with 20 ng/ml EGF and FGF semiweekly (R&D Systems, Minneapolis, Minn.). […] Mice were euthanized when tumors reached 1000 mm^3. […] Tumor cells used to establish both models were cultured in DMEM containing 10% FBS, penicillin/streptomycin (100 U/ml), and 0.1 mg/ml Normocin (Invivogen) in atmospheric oxygen.
Tumor lysates were prepared by dissociating tumor cells with non-enzymatic dissociation solution (Sigma). Cells were then washed 3 times with PBS, re-suspended in 500 μL PBS, and frozen overnight at −80° C. Cells were then lysed by five freeze/thaw cycles of freezing in liquid nitrogen and thawing in a 55° C. water bath. Cell debris was pelleted by centrifugation at 14,000 RCF, and the protein concentration of the supernatant was determined using a Bradford assay. Lysates were stored at −80° C. until use. Each vaccine was prepared on the day of vaccination and consisted of 65 μg of protein tumor lysate and 10 μg Poly:ICLC (Oncovir, Inc.), with or without 50 μg of the 6059 peptide antagonist, in a final volume of 100 μL injected intradermally in the back of the neck. For survival studies, vaccines were administered weekly starting three days post-tumor implantation for a total of 6 doses. In T cell priming experiments, CD8 T-cell priming experiments, animals were vaccinated intradermally on four consecutive days with 100 μg Ovalbumin (OVA) and 10 μg Poly:ICLC, and once more on day eleven^19.

## NTIGDGGCY [Antagonist 6059]
GL261, 10 μg in the brain on day 2, then tumor lysate + inhibitor
  Tumor growth after inoculation of the inhibitor into the CNS tumor site: Tumor growth was delayed; also recorded: further suppressed tumor growth
GL261, tumor lysate + antagonist
  Survival enhancement / survival benefit: 30%
GL261
  Tumor growth: tumors grow faster in mice vaccinated with saline or tumor lysate alone compared to mice vaccinated with tumor lysate plus an antagonist; also recorded: slowed tumor growth
GL261, listed as CD200R antagonist
  Tumor growth: statistically significant inhibition of tumor growth
  Survival: increased survival benefit; also recorded: enhancing survival
Listed as CD200R antagonist
  Survival: enhanced survival benefit

— patent US10576145B2, “CD200 inhibitors and methods of use thereof” (REGENTS OF THE UNIVERSITY OF MINNESOTA, priority 2014, dated 2020)
